According to patent publication US20230114241A1, “METHODS OF TREATING EPILEPSY USING THE SAME” (Trevena, Inc., priority 2019, published 2023):

What was measured:
[1] = biological target: T1, human sphingosine-1-phosphate receptor 1 (S1P1) (Homo sapiens, UniProt P21453); test: Inhibition of cAMP production (HTRF cAMP HiRange), S1P1 CHO-K1 cells; assay type: cell-based; conditions: for Emax: CHO-K1, efficacy normalized to maximum efficacy of fingolimod, read-out: hS1P1 CAMP SPAN; for EC50: read-out: hS1P1 CAMP pEC50 (converted)
Outline: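 Intracellular cAMP changes read by TR-FRET (HTRF HiRange, 1 h room temperature) after 30 min compound exposure at 37 °C. Cells: overnight-plated CHO-K1 stably expressing tagged human S1P1 with EA-β-arrestin2. Responses normalized to fingolimod.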
Target sequence in this assay (P21453 whole entry): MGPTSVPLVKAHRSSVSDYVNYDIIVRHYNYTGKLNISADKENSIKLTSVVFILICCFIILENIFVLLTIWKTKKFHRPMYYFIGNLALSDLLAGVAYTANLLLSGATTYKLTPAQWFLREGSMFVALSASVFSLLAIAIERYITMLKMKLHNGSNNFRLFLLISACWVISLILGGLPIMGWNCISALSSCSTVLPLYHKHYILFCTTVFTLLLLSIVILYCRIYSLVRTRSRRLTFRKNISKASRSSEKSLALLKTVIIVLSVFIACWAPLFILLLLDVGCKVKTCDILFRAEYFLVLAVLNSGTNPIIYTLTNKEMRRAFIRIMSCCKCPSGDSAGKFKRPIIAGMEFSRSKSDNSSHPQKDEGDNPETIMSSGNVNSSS

[2] = biological target: T1, human sphingosine-1-phosphate receptor 1 (S1P1); test: β-Arrestin2 recruitment assay (PathHunter), S1P1 CHO-K1 cells; assay type: cell-based; conditions: for Emax: efficacy normalized to maximum efficacy of fingolimod, read-out: hS1P1 B-arrestin2 SPAN; for EC50: β-arrestin2 recruitment, read-out: hS1P1 B-arrestin2 pEC50 (converted)
Outline: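 Agonist-driven β-arrestin2 recruitment measured by β-galactosidase complementation after 60 min compound exposure at 37 °C and 1 h detection at room temperature. Cells: stable CHO-K1 line expressing tagged human S1P1 with EA-β-arrestin2, plated the night before. Data expressed relative to fingolimod.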
Target sequence in this assay (P21453 whole entry): as above
Target sequence in this assay (P32121 whole entry partner): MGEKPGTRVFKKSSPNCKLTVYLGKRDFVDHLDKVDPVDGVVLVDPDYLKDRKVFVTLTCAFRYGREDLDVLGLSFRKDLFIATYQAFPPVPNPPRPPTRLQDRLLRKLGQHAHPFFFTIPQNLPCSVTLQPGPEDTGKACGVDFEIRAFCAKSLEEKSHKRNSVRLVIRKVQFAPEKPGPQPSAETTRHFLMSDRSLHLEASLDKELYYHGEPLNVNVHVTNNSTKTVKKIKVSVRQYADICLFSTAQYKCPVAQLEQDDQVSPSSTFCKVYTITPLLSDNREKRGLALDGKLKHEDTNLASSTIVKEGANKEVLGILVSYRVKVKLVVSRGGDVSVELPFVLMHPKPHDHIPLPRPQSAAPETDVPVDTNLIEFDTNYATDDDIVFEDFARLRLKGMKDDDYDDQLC

[3] = inhibition of cAMP production, potency
[4] = CHO-K1, β-arrestin2 recruitment
[5] = inhibition of cAMP production, S1P1

Row | Structure (SMILES) | Emax ([1]; inhibition of cAMP production) [%] | EC50 [1, 3] [µM] | Emax [2, 4] [%] | EC50 ([2]; potency) [µM] | Emax [1] [%] | EC50 [1, 5] [µM] | Emax ([2]; CHO-K1) [%] | EC50 ([2]; S1P1) [µM]
1 | COc1cccc(-c2noc(-c3ccc4c(c3)nnn4C(C)C)n2)c1 [Compound 228, 5-(1-isopropyl-1H-benzo[d][1,2,3]triazol-5-yl)-3-(3-methoxy-phenyl)-1,2,4-oxadiazole] | < 75 | > 0.316 | < 75 | > 10 |  |  |  | 
2 | COc1ccc(-c2nc(-c3ccc4c(c3)nnn4C(C)(C)CO)no2)c(C)c1 [Compound 610, 2-(5-(5-(4-methoxy-2-methylphenyl)-1,2,4-oxadiazol-3-yl)-1H-benzo[d] [1,2,3]triazol-1-yl)-2-methylpropan-1-ol] |  |  |  |  | < 75 | > 0.316 | > 75 | > 10
3 | Cc1ccc(-c2noc(-c3ccc4c(c3)nnn4C3CCCC3)n2)cc1 [Compound 164, 1-cyclopentyl-5-[3-(4-methylphenyl)-1,2,4-oxadiazol-5-yl]-1H-1,2,3-benzotriazole] | < 75 | > 0.316 | < 75 | > 10 |  |  |  | 
4 | CC(C)Oc1ccc(-c2noc(-c3ccc4c(c3)nnn4C(C)C)n2)cc1C(F)(F)F [Compound 20, 3-(4-isopropoxy-3-(trifluoromethyl)phenyl)-5-(1-isopropyl-1H-benzo[d][1,2,3]triazol-5-yl)-1,2,4-oxadiazole] | > 75 | < 0.316 | > 75 | < 10 |  |  |  | 
5 | CCC1(CC)CC(=O)c2cc(-c3nc(-c4ccc(C)nc4)no3)ccc2O1 [Compound 550, 2,2-diethyl-6-(3-(6-methylpyridin-3-yl)-1,2,4-oxadiazol-5-yl)chroman-4-one] |  |  |  |  | > 75 | > 0.316 | < 75 | < 10
6 | CC(C)Cn1nnc2cc(-c3nc4c(Cl)cccc4o3)ccc21 [Compound 453, 4-chloro-2-(1-isobutyl-1H-benzo[d][1,2,3]triazol-5-yl)benzo[d]oxazole] |  |  |  |  | > 75 | < 0.316 | < 75 | 
7 | CC(C)Nc1ccc(-c2ncc(-c3ccc4c(c3)nnn4C(C)C)cn2)cc1C#N [Compound 596, 5-(5-(1-isopropyl-1H-benzo[d][1,2,3]triazol-5-yl)pyrimidin-2-yl)-2-(isopropyl-amino)benzonitrile] |  |  |  |  | < 75 | < 0.316 | > 75 | < 10
8 | COc1ccc(-c2nc(-c3cccc4[nH]ccc34)ns2)cc1 [Compound 361, 4-[5-(4-methoxyphenyl)-1,2,4-thiadiazol-3-yl]-1H-indole] | < 75 | > 0.316 | < 75 | > 10 |  |  |  | 
9 | Cc1nc2cc(-c3nc(-c4ccc5c(c4)nnn5C(C)C)no3)ccc2[nH]1 [Compound 571, 5-[5-(2-methyl-1H-1,3-benzodiazol-5-yl)-1,2,4-oxadiazol-3-yl]-1-(propan-2-yl)-1H-1,2,3-benzotriazole] |  |  |  |  | > 75 | < 0.316 | < 75 | < 10
10 | CC(C)n1nnc2cc(-c3noc(C45CC6CC(CC(C6)C4)C5)n3)ccc21 [Compound 200, 5-[5-(adamantan-1-yl)-1,2,4-oxadiazol-3-yl]-1-(propan-2-yl)-1H-1,2,3-benzotriazole] | < 75 | > 0.316 | < 75 | > 10 |  |  |  | 
11 | Cc1cnc(-c2noc(-c3ccc4c(c3)nnn4C(C)C)n2)cn1 [Compound 157, 5-[3-(5-methylpyrazin-2-yl)-1,2,4-oxadiazol-5-yl]-1-(propan-2-yl)-1H-1,2,3-benzotriazole] | < 75 | > 0.316 | < 75 | > 10 |  |  |  | 
12 | CC(C)n1ccc2cc(-c3noc(-c4ccncc4)n3)ccc21 [Compound 395, 3-(1-isopropyl-1H-indol-5-yl)-5-(pyridin-4-yl)-1,2,4-oxadiazole] |  |  |  |  | < 75 | < 0.316 | > 75 | < 10
13 | COc1ccc(-c2nc(-c3ccc4c(c3)nnn4C3CCCC3)no2)cc1 [Compound 196, 3-(1-cyclopentyl-1H-benzo[d][1,2,3]triazol-5-yl)-5-(4-methoxyphenyl)-1,2,4-oxadiazole] | < 75 | > 0.316 | < 75 | > 10 |  |  |  | 
14 | Cc1ccccc1-c1nsc(-c2ccc3c(ccn3C(C)C)c2)n1 [Compound 381, 5-[3-(2-methylphenyl)-1,2,4-thiadiazol-5-yl]-1-(propan-2-yl)-1H-indole] |  |  |  |  | < 75 | > 0.316 | < 75 | < 10
15 | CSc1ccccc1-c1nc(-c2ccc3c(c2)nnn3C(C)C)no1 [Compound 276, 3-(1-isopropyl-1H-benzo[d][1,2,3]triazol-5-yl)-5-(2-(methylthio)phenyl)-1,2,4-oxadiazole] | > 75 | < 0.316 | > 75 | < 10 |  |  |  | 
16 | CSc1ccccc1-c1nc(-c2ccc3c(c2)nnn3C2CCCC2)no1 [Compound 16, 3-(1-cyclopentyl-1H-benzo[d][1,2,3]triazol-5-yl)-5-(2-(methylthio)phenyl)-1,2,4-oxadiazole] | < 75 | > 0.316 | > 75 | < 10 |  |  |  | 
17 | CCC1(CC)CC(=O)c2cc(-c3nc(-c4cncc(C)c4)no3)ccc2O1 [Compound 563, 2,2-diethyl-6-(3-(5-methylpyridin-3-yl)-1,2,4-oxadiazol-5-yl)chroman-4-one] |  |  |  |  | > 75 | < 0.316 | < 75 | < 10
18 | Cc1ccccc1-c1nc(-c2ccc3c(ccn3C(C)C)c2)no1 [Compound 389, 3-(1-isopropyl-1H-indol-5-yl)-5-(o-tolyl)-1,2,4-oxadiazole] |  |  |  |  | > 75 | < 0.316 | > 75 | < 10
19 | CC(C)n1nnc2cc(-c3noc(-c4ccccc4N(C)C)n3)ccc21 [Compound 615, N,N-dimethy1-2-{3-[1-(propan-2-yl)-1H-1,2,3-benzotriazol-5-yl]-1,2,4-oxadiazol-5-yl}aniline] |  |  |  |  | > 75 | < 0.316 | > 75 | < 10
20 | CC(C)n1ccc2cc(-c3noc(-c4ccccc4C(F)(F)F)n3)ccc21 [Compound 390, 3-(1-isopropyl-1H-indol-5-yl)-5-(2-(trifluoromethyl)phenyl)-1,2,4-oxadiazole] |  |  |  |  | > 75 | < 0.316 | < 75 | < 10
21 | CC(C)(CO)Cn1nnc2cc(-c3noc(-c4cnccc4C(F)(F)F)n3)ccc21 [Compound 529, 2,2-dimethyl-3-(5-(5-(4-(trifluoro-methyl)pyridin-3-yl)-1,2,4-oxadiazol-3-yl)-1H-benzo[d][1,2,3]triazol-1-yl)propan-1-ol] |  |  |  |  | > 75 | > 0.316 | < 75 | < 10
22 | CCC1(CC)CC(=O)c2cc(-c3nc(-c4ccco4)no3)ccc2O1 [Compound 465, 2,2-diethyl-6-(3-(furan-2-yl)-1,2,4-oxadiazol-5-yl)chroman-4-one] |  |  |  |  | > 75 | < 0.316 | > 75 | < 10
23 | CCCCC1CC(=O)c2ccc(-c3nc(-c4cccnc4)no3)cc2O1 (stereo not shown) [Compound 633, 2-butyl-7-[3-(pyridin-3-yl)-1,2,4-oxadiazol-5-yl]-3,4-dihydro-2H-1-benzopyran-4-one] |  |  |  |  | < 75 | > 0.316 | < 75 | > 10
24 | COc1ccccc1-c1noc(-c2cnc3c(c2)nnn3C(C)C)n1 [Compound 383, 3-(2-methoxyphenyl)-5-[3-(propan-2-yl)-3H-[1,2,3]triazolo[4,5-b]pyridin-6-yl]-1,2,4-oxadiazole] |  |  |  |  | > 75 | < 0.316 | > 75 | < 10
25 | CC(C)n1ccc2cc(-c3nc(-c4ccccc4C(F)(F)F)cs3)cnc21 [Compound 408, 2-(1-isopropylpyrrolo[2,3-b]pyridin-5-yl)-4-[2-(trifluoromethyl)phenyl] thiazole] |  |  |  |  | > 75 | > 0.316 | < 75 | > 10
26 | COc1ccccc1-c1nnc(-c2ccc3[nH]oc(=O)c3c2)o1 [Compound 339, 5-[5-(2-methoxyphenyl)-1,3,4-oxadiazol-2-yl]-1,3-dihydro-2,1-benzoxazol-3-one] | < 75 | > 0.316 | < 75 | > 10 |  |  |  | 
27 | CC(C)n1nnc2cc(-c3nc(-c4ccccc4Br)no3)cnc21 [Compound 413, 3-(2-bromophenyl)-5-[3-(propan-2-yl)-3H-[1,2,3]triazolo[4,5-b]pyridin-6-yl]-1,2,4-oxadiazole] |  |  |  |  | < 75 | < 0.316 | > 75 | < 10
28 | CC(C)n1ccc2cc(-c3noc(-c4ccccn4)n3)ccc21 [Compound 397, 3-(1-isopropyl-1H-indol-5-yl)-5-(pyridin-2-yl)-1,2,4-oxadiazole] |  |  |  |  | < 75 | > 0.316 | > 75 | > 10
29 | CCCn1nnc2cc(-c3nc(-c4ccc(F)cc4)no3)ccc21 [Compound 5, 5-[3-(4-fluorophenyl)-1,2,4-oxadiazol-5-yl]-1-propyl-1H-1,2,3-benzotriazole] | < 75 | > 0.316 | < 75 | > 10 |  |  |  | 
